By AC50 is commonly meant the concentration giving half of the maximal activity seen.

The source made the active and inactive calls.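 The calls were made as follows: active = AC50 no more than ten times the top concentration tested, that is within one log above it; inconclusive = flat curve fit with activity between 30% and 70%, or invalid poor fit; inactive = AC50 beyond ten times the top tested dose.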

AC50 data for 63 compounds are collected here from PubChem BioAssay AID463204 (Broad Institute, 2010).

For this experiment, the system named is S. cerevisiae Mot1-301 ts growth rescue, BacTiter-Glo ATP luminescence. The experiment can be described thus: growth rescue of Mot1-301 ts yeast, confirmation, SUMOylation pathway inhibitor project, whole organism, S. cerevisiae, Mot1-301 ts mutant, luminescence, dose retest (AID 463204).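 Also: growth at restrictive 38.5 degrees C of Mot1-301 OY566 strain; actives raise luminescence by restoring growth of the ts mutant at high temperature.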
Regarding `Cc1n[nH]c(C)c1S(=O)(=O)N(CC(=O)NC1CCCC1)c1ccc(C(C)C)cc1`, the AC50 was > 21 µM (inactive).
On to `CCOC(=O)c1sc(NC(=O)C(CC)OC(=O)c2ccco2)nc1C` (stereo not drawn), for which the AC50 is > 42 µM (inactive).
Under `CCCOc1ccccc1C1NC(=O)NC(C)=C1C(=O)OCc1ccccc1` (stereo not drawn) stands > 42 µM (inactive); under `CCN(C(=O)COC(=O)c1cc([N+](=O)[O-])ccc1N1CCOCC1)C1CCCCC1`, > 42 µM (inactive).
Under `CC(C)NC(=O)c1ccccc1-c1ccccc1` stands > 42 µM (inactive); under `CCC(c1nnnn1C1CCCC1)N1CCN(c2cccc(OC)c2)CC1` (stereo not drawn), > 21 µM (inactive).
Under `Cc1ccccc1C(=O)/C=C1\NC(=O)CS1` stands > 21 µM (inactive); under `CCN(CC(=O)NCc1ccc(Cl)cc1)C(=O)/C=C/c1ccc(C#N)cc1`, > 42 µM (inactive).
`CCCCn1c(N)c(N(CC(C)C)C(=O)CSCC(=O)Nc2cccc(C)c2)c(=O)[nH]c1=O`: the AC50 was > 42 µM (inactive).
Under `COc1cccc(C2/C(=C(/O)c3ccccc3)C(=O)C(=O)N2Cc2ccco2)c1` (stereo not drawn) stands > 42 µM (inactive).
Under `C=CCN1C(=O)/C(=C2/Sc3ccc(OC)cc3N2C)SC1=Nc1ccccc1` stands > 42 µM (inactive).
Under `COc1cccc(NC(=O)c2nn(C34CC5CC(CC(C5)C3)C4)cc2[N+](=O)[O-])c1` stands > 42 µM (inactive); under `COc1ccc(C(=O)N/C(=C\c2cn(C)c3ccccc23)C(=O)OCCN(C)C)cc1`, > 42 µM (inactive).
As to `COc1ccccc1CC(=O)N1CCOCC1`, the AC50 was > 42 µM (inactive).
Under `COc1ccc2c(c1)c(CC(=O)OCC(N)=O)c(C)n2C(=O)c1ccc(Cl)cc1` stands > 42 µM (inactive); under `COc1ccc2[nH]cc(CCNS(=O)(=O)c3ccc(C)cc3)c2c1`, > 42 µM (inactive); under `CN(C)C(=O)CNC(=O)C1CCCCC1`, > 42 µM (inactive).
Under `O=C1CCCN1CCC1CCN(C2CC(=O)N(c3ccc(Cl)cc3)C2=O)CC1` (stereo not drawn) stands 10.1 µM; under `CCC(=O)N1c2ccc(S(=O)(=O)N3CCN(c4ccc([N+](=O)[O-])cc4)CC3)cc2CC1C` (stereo not drawn), > 42 µM (inactive); under `O=C1c2cccc3c(N4CCCCC4)ccc(c23)C(=O)N1CCO`, > 42 µM (inactive).
Under `Cc1cc(C(F)(F)F)nc(SCC(=O)Nc2cc(C)on2)n1` stands > 42 µM (inactive); under `N#CCCN(Cc1cccnc1)C(=O)Nc1cccc(Cl)c1`, > 42 µM (inactive); under `CCCCn1c(N)c(N(CCOC)C(=O)c2ccc(Cl)c(S(=O)(=O)N3CCCCC3)c2)c(=O)[nH]c1=O`, > 42 µM (inactive).
For `O=C(NNC(=O)c1ccc(-n2cncn2)c([N+](=O)[O-])c1)c1ccc(Cl)cc1`, the AC50 is > 42 µM (inactive).
Under `CC(C)N(C(=S)Nc1cccc(S(=O)(=O)N(C)C)c1)c1ccccc1` stands > 42 µM (inactive); under `c1ccc(OCCCc2nc(-c3cccnc3)no2)cc1`, > 42 µM (inactive).
Under `Cc1ccc(NC(=O)Cn2nnc(C(=O)NCc3ccc4c(c3)OCO4)c2N)cc1` stands > 42 µM (inactive); under `CN1C(=O)c2ccc(NC(=S)NC(=O)C(C)(C)C)cc2C1=O`, > 42 µM (inactive).
With `CSc1nnc2c3cc(C)ccc3n(Cc3ccccc3)c2n1`, the AC50 is > 42 µM (inactive).
Under `COc1ccccc1CNc1ncnc2nc[nH]c12` stands > 42 µM (inactive); under `O=C(NCCCN1CCN(c2ccccc2F)CC1)Nc1ccccc1[N+](=O)[O-]`, > 42 µM (inactive); under `O=C(N/N=C/c1ccc(Cl)s1)c1ccccc1[N+](=O)[O-]`, > 42 µM (inactive).
As to `O=C(CCC(=O)Nc1ccc(F)cc1)N/N=C/c1cccs1`, the AC50 is > 42 µM (inactive).
Under `Cc1ccc(N(CC(=O)Nc2cccc(C)c2)S(=O)(=O)c2cccc3nonc23)cc1` stands > 21 µM (inactive); under `OCC1(Cc2cccc(Cl)c2)CCCN(Cc2ccc(F)c(F)c2)C1` (stereo not drawn), > 42 µM (inactive).
Under `Cn1c(-c2sc3cc(C(F)(F)F)cnc3c2-c2cccs2)n[nH]c1=S` stands > 42 µM (inactive).
Under `CC(C)(C)NC(=O)CN(C(=O)CCC(=O)Nc1nccs1)c1ccc2c(c1)OCCO2` stands > 42 µM (inactive).
`O=c1c2c3c(sc2n2cnnc2n1-c1ccccc1)N(Cc1ccccc1)CCC3`: the AC50 is > 42 µM (inactive).
Under `CCc1cc(/C(Cc2ccccn2)=N\O)c(O)cc1O` stands > 42 µM (inactive).
Under `CN=C1SC(CC(=O)Nc2sc3c(c2C#N)CCCC3)C(=O)N1C` (stereo not drawn) stands > 42 µM (inactive); under `Cc1cc(-c2ccc(Cl)cc2Cl)c(C#N)c(=O)[nH]1`, > 42 µM (inactive).
As for `O=C(c1ccc(F)cc1)C(CN1CCOCC1)c1ccccc1` (stereo not drawn), the AC50 was 1.3 µM.
Under `Cc1nn(Cc2ccc(C(=O)Nc3ccccc3C(F)(F)F)o2)c(C)c1Br` stands > 42 µM (inactive); under `Cc1cc(=O)oc(C)c1C(=O)Nc1ccc(Cl)cn1`, > 42 µM (inactive); under `CN(C(=O)CSc1nnc(-c2cccc(F)c2)n1N)C1CCS(=O)(=O)C1` (stereo not drawn), > 42 µM (inactive).
Under `COc1ccc2c(c1)OC[C@H]1[C@H]2N2C(=O)c3ccccc3NC(=O)[C@@]2(C)[C@H]1c1ccccc1` stands > 42 µM (inactive).
Under `Cc1sc2ncnc(Nc3ccccc3)c2c1C` stands 29.7 µM; under `CCOC(=O)c1sc(NC(=O)CSc2n[nH]c(-c3ccccc3)n2)c(C#N)c1C`, 20.6 µM.
`CC1(C)C(C=C(Cl)Cl)C1C(=O)OCc1cccc(Oc2ccccc2)c1` (stereo not drawn): the AC50 is > 42 µM (inactive).
Under `Cc1ccc(NC(=O)C(=O)NCC2CCCN2S(=O)(=O)c2cccs2)cc1` (stereo not drawn) stands > 42 µM (inactive); under `O=C(N1CCOCC1)C1(S(=O)(=O)c2ccccc2)CC=CC1`, > 42 µM (inactive); under `COC(=O)CNC(=O)CSc1ccccn1`, > 42 µM (inactive).
Take `CCn1cc(C(=O)N2CCN(c3ccc(OC)cc3)CC2)c(=O)c2cc(S(=O)(=O)N3CCOCC3)ccc21`: the AC50 was > 42 µM (inactive).
Under `O=c1[nH]cnc2cc(Cl)ccc12` stands > 21 µM (inactive).
Under `O=C(CN(CC1CCCO1)C(=O)CNS(=O)(=O)c1ccc(F)cc1)NCc1ccccc1` (stereo not drawn) stands > 42 µM (inactive); under `O=C(O)/C=C/c1cccnc1`, > 42 µM (inactive); under `O=[N+]([O-])c1c(NCCCO)cc(Sc2nc3ccccc3s2)c2nonc12`, 40 µM.
Under `COCCn1c(C)cc(C(=O)CN2C(=O)NC3(CCCCCCC3)C2=O)c1C` stands > 42 µM (inactive); under `CCN(CC)c1ccc(C=C2C(=O)OC(c3ccccc3)OC2=O)cc1` (stereo not drawn), > 42 µM (inactive).
For `Cc1cc(C)cc(-n2ncc3c2CCCC3NC(=O)c2cc(C)[nH]n2)c1` (stereo not drawn), the AC50 is > 42 µM (inactive).
As for `CC(=O)Nc1nn(C)c2nc3ccc(C)cc3cc12`, the AC50 was > 42 µM (inactive).
As to `Cn1c(SCC(=O)N/N=C/c2ccc([N+](=O)[O-])s2)nnc1-c1ccc(Cl)cc1`, the AC50 was 10.2 µM.
Under `O=C(O)Cc1sc(Nc2ccccc2)nc1-c1cccs1` stands > 42 µM (inactive).
